Values after ≈ are worked out from the molar mass of the structure shown.
What was measured:
[1] = tested on: clinically important Gram-positive bacteria; assay: Antimicrobial activity / growth inhibition; format: cell-based
Protocol: (§1) The effect of the first aspect of the present invention resides in the creation of a novel and useful 16-membered macrolide derivative. Antimicrobial activities of the compounds of the present invention were determined by measuring minimum inhibitory concentration (MIC). Minimum inhibitory concentration was determined by the agar plate dilution method in the following manner.
(§2) Test strains were subjected to seed culture using Sensitivity test broth (STB, Nissui Pharmaceutical) except that the strains belonging to the genus Streptococcus, Branhamella and Haemophilus were cultured on blood agar plate. A 5 μl portion of cell suspension of the test strains having about 10^6 CFU/ml was inoculated into Sensitivity disk agar (SDA, Nissui Pharmaceutical) supplemented with 5% horse blood and incubated at 37° C. for 20 hours. Then, MIC was measured. […] Antimicrobial activities in vitro of the compounds (1) and (2) are shown in Table 1, and those of the compounds (3) and (4) in Table 3.

Streptococcus pneumoniae = assay: Antimicrobial activity in vitro; format: cell-based; settings: compared with MDM and LM-A7
Protocol: as §1, §2

test strains = assay: Antimicrobial activity in vitro, test strains overall; format: cell-based
Protocol: as §1, §2

K. pneumoniae PCI602 = assay: MIC, agar plate dilution method; format: cell-based; settings: Klebsiella pneumoniae, PCI602, 20 h, 37° C., SDA with 5% horse blood, read-out: Antimicrobial activity (MIC)
Protocol: as §1, §2

S. pneumoniae Type 1 = assay: MIC, agar plate dilution method; format: cell-based; settings: Streptococcus pneumoniae, TYPE1, 20 h, read-out: Antimicrobial activity (MIC), 37° C., 20 hours, SDA with 5% horse blood
Protocol: as §1, §2

B. catarrhalis W-0500 = assay: MIC, agar plate dilution method; format: cell-based; settings: Moraxella catarrhalis, W0500, 20 h, read-out: Antimicrobial activity (MIC), 37° C., 20 hours, SDA with 5% horse blood
Protocol: as §1, §2

S. aureus MS15026 = assay: MIC, agar plate dilution method; format: cell-based; settings: Staphylococcus aureus, 37° C., 20 hours, SDA with 5% horse blood, read-out: Antimicrobial activity (MIC)
Protocol: as §1, §2

S. pneumoniae IP692 = assay: MIC, agar plate dilution method; format: cell-based; settings: Streptococcus pneumoniae, IP692, 20 h, read-out: Antimicrobial activity (MIC), 37° C., 20 hours, SDA with 5% horse blood
Protocol: as §1, §2

S. aureus MS15009/pMS98 = assay: MIC, agar plate dilution method; format: cell-based; settings: Staphylococcus aureus, MS15009/PMS98, 20 h, read-out: Antimicrobial activity (MIC), 37° C., 20 hours, SDA with 5% horse blood
Protocol: as §1, §2

M. luteus ATCC9341 = assay: MIC, agar plate dilution method; format: cell-based; settings: Micrococcus luteus, ATCC9341; 37° C., 20 hours, SDA with 5% horse blood; read-out: Antimicrobial activity (MIC)
Protocol: as §1, §2

S. aureus MS15027 = assay: MIC, agar plate dilution method; format: cell-based; settings: Staphylococcus aureus, MS15027, 20 h, read-out: Antimicrobial activity (MIC), 37° C., 20 hours, SDA with 5% horse blood
Protocol: as §1, §2

S. aureus 209P JC-1 = assay: MIC, agar plate dilution method; format: cell-based; settings: Staphylococcus aureus, 209P, 20 h, read-out: Antimicrobial activity (MIC), 37° C., 20 hours, SDA with 5% horse blood
Protocol: as §1, §2

S. aureus M126 = assay: MIC, agar plate dilution method; format: cell-based; settings: Staphylococcus aureus, 37° C., 20 hours, SDA with 5% horse blood, read-out: Antimicrobial activity (MIC)
Protocol: as §1, §2

S. aureus M133 = assay: MIC, agar plate dilution method; format: cell-based; settings: Staphylococcus aureus, M133, 20 h, read-out: Antimicrobial activity (MIC), 37° C., 20 hours, SDA with 5% horse blood
Protocol: as §1, §2

S. epidermidis ATCC14990 = assay: MIC, agar plate dilution method; format: cell-based; settings: Staphylococcus epidermidis, ATCC14990, 20 h, read-out: Antimicrobial activity (MIC), 37° C., 20 hours, SDA with 5% horse blood
Protocol: as §1, §2

E. faecalis W-73 = assay: MIC, agar plate dilution method; format: cell-based; settings: Enterococcus faecalis, W73, 20 h, 37° C., 20 hours, SDA with 5% horse blood; read-out: Antimicrobial activity (MIC)
Protocol: as §1, §2

S. aureus MS15009/pMS99 = assay: MIC, agar plate dilution method; format: cell-based; settings: Staphylococcus aureus, MS15009/PMS99, 20 h, read-out: Antimicrobial activity (MIC)
Protocol: as §1, §2

B. catarrhalis W-0506 = assay: MIC, agar plate dilution method; format: cell-based; settings: Moraxella catarrhalis, W0506, 20 h, read-out: Antimicrobial activity (MIC), 37° C., 20 hours, SDA with 5% horse blood
Protocol: as §1, §2

H. influenzae Type b = assay: MIC, agar plate dilution method; format: cell-based; settings: Haemophilus influenzae, 20 h, read-out: Antimicrobial activity (MIC), 37° C., 20 hours, SDA with 5% horse blood
Protocol: as §1, §2

[2] = tested on: Streptococcus pneumoniae DP-1 Type 1; assay: Infection-treating test in mice; format: in vivo
Source text: The compounds represented by the formula (I) exert excellent in vivo effects in infection-treating tests in mice in comparison with the case of currently known 16-membered macrolide antimicrobial agents. […] Such an excellent effect is related not to the ester bonding of the tertiary hydroxyl group at the 3"-position with an acyl group but directly to its ether bonding with a methyl group. […] In this connection, it has been reported that an isovaleryl group linked to a hydroxyl group at the 4"-position cannot easily be cleaved in rat blood plasma when compared with a propionyl group [Yakugaku Zasshi, 102(8), 781 (1982)].

## CCC(=O)O[C@@H]1CC(=O)O[C@H](C)C/C=C/C=C/[C@H](O)[C@H](C)C[C@H](CC=O)[C@H](O[C@@H]2O[C@H](C)[C@@H](O[C@H]3C[C@@](C)(OC)[C@@H](OC(=O)CC)[C@H](C)O3)[C@H](N(C)C)[C@H]2O)[C@H]1OC [(1), 3"-O-methylmidecamycin A1]
[1]
  antimicrobial activities (in words): strong antimicrobial activities
Streptococcus pneumoniae
  antimicrobial activity against Streptococcus pneumoniae: considerably improved antimicrobial activity
Test strains; against most of test strains
  antimicrobial activities in vitro compared with corresponding compounds having free 3"-hydroxyl (MDM, LM-A7): twice as high
K. pneumoniae PCI602
  MIC: > 100 µg/mL
S. pneumoniae Type 1
  MIC: 0.1 µg/mL (≈ 0.121 µM)
B. catarrhalis W-0500
  MIC: 0.78 µg/mL (≈ 0.942 µM)
S. aureus MS15026
  MIC: > 100 µg/mL
S. pneumoniae IP692
  MIC: 0.1 µg/mL (≈ 0.121 µM)
S. aureus MS15009/pMS98
  MIC: 0.2 µg/mL (≈ 0.242 µM)
M. luteus ATCC9341
  MIC: 0.05 µg/mL (≈ 0.0604 µM)
S. aureus MS15027
  MIC: 0.39 µg/mL (≈ 0.471 µM)
S. aureus 209P JC-1
  MIC: 0.2 µg/mL (≈ 0.242 µM)
S. aureus M126
  MIC: > 100 µg/mL
S. aureus M133
  MIC: 0.39 µg/mL (≈ 0.471 µM)
S. epidermidis ATCC14990
  MIC: 0.78 µg/mL (≈ 0.942 µM)
E. faecalis W-73
  MIC: 1.56 µg/mL (≈ 1.88 µM)
S. aureus MS15009/pMS99
  MIC: > 100 µg/mL
B. catarrhalis W-0506
  MIC: 0.78 µg/mL (≈ 0.942 µM)
H. influenzae Type b
  MIC: 12.5 µg/mL (≈ 15.1 µM)

## CCC(=O)O[C@@H]1CC(=O)O[C@H](C)C/C=C/C=C/[C@H](OC(C)=O)[C@H](C)C[C@H](CC=O)[C@H](O[C@@H]2O[C@H](C)[C@@H](O[C@H]3C[C@@](C)(OC)[C@@H](OC(=O)CC)[C@H](C)O3)[C@H](N(C)C)[C@H]2O)[C@H]1OC [(5), 9-O-acetyl-3"-O-methylmidecamycin A1]
[2]; fraction of miokamycin amount
  amount giving a coordinate infection-treating effect relative to miokamycin: 1/4
[2]; fraction of rokitamycin amount
  amount giving a coordinate infection-treating effect relative to rokitamycin: 1/8
Test strains; 9-O-acylated vs free 9-hydroxyl
  antimicrobial activities compared with starting materials (1), (2) and (33): strong antimicrobial activities by themselves though slightly lower than those of their starting materials
Test strains; vs miokamycin (MOM)
  antimicrobial activities in vitro compared with miokamycin: comparable to or higher
